Target: EmrE (Escherichia coli, UniProt P23895)
Assay: biochemical

Sequence of EmrE (P23895 whole entry): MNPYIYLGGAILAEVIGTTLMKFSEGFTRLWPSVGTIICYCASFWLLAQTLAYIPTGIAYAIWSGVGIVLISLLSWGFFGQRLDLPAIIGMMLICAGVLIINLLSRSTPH

Kd: 0.12 ± 0.012 µM
Compound: c1ccc([P+](c2ccccc2)(c2ccccc2)c2ccccc2)cc1 [TPP^+]

From PMC3253143 (Nature, 2011)
